Assay results reported in ChEMBL document CHEMBL5649169 (ChemMedChem, 2018).

Key:
[1] = species on record: Homo sapiens
[2] = molecular target: Serine/threonine-protein kinase LATS1 (Homo sapiens) (UniProt O95835)
[3] = molecular target: Ribosomal protein S6 kinase alpha-4 (Homo sapiens) (UniProt O75676)
[4] = molecular target: Secretory carrier-associated membrane protein 3 (Homo sapiens) (UniProt O14828)
[5] = molecular target: Glycogen synthase kinase-3 beta (Homo sapiens) (UniProt P49841)
[6] = molecular target: Dual specificity protein kinase CLK1 (Homo sapiens) (UniProt P49759)
[7] = molecular target: ATPase family AAA domain-containing protein 3A (Homo sapiens) (UniProt Q9NVI7)
[8] = molecular target: POTE ankyrin domain family member E (Homo sapiens) (UniProt Q6S8J3)
[9] = molecular target: Cytoskeleton-associated protein 4 (Homo sapiens) (UniProt Q07065)
[10] = molecular target: Tyrosine-protein kinase Lyn (Homo sapiens) (UniProt P07948)
[11] = species on record: Homo sapiens; remark: listed apart in the source
[12] = molecular target: Alpha-actinin-4 (Homo sapiens) (UniProt O43707)
[13] = molecular target: Tyrosine-protein kinase Fyn (Homo sapiens) (UniProt P06241)
[14] = molecular target: Conserved oligomeric Golgi complex subunit 8 (Homo sapiens) (UniProt Q96MW5)
[15] = molecular target: THUMP domain-containing protein 1 (Homo sapiens) (UniProt Q9NXG2)
[16] = molecular target: Transmembrane protein 33 (Homo sapiens) (UniProt P57088)
[17] = molecular target: Tubulin alpha-1C chain (Homo sapiens) (UniProt Q9BQE3)
[18] = molecular target: Unhealthy ribosome biogenesis protein 2 homolog (Homo sapiens) (UniProt Q14146)
[19] = molecular target: Discoidin domain-containing receptor 2 (Homo sapiens) (UniProt Q16832)
[20] = molecular target: NADH dehydrogenase [ubiquinone] iron-sulfur protein 7, mitochondrial (Homo sapiens) (UniProt O75251)
[21] = molecular target: Tryptophan--tRNA ligase, cytoplasmic (Homo sapiens) (UniProt P23381)
[22] = molecular target: Sister chromatid cohesion protein PDS5 homolog A (Homo sapiens) (UniProt Q29RF7)
[23] = molecular target: Vesicle-associated membrane protein 8 (Homo sapiens) (UniProt Q9BV40)
[24] = molecular target: Protein LYRIC (Homo sapiens) (UniProt Q86UE4)
[25] = molecular target: Splicing factor U2AF 35 kDa subunit (Homo sapiens) (UniProt Q01081)
[26] = molecular target: GTPase-activating protein and VPS9 domain-containing protein 1 (Homo sapiens) (UniProt Q14C86)
[27] = molecular target: Sodium/potassium-transporting ATPase subunit alpha-1 (Homo sapiens) (UniProt P05023)
[28] = species on record: Homo sapiens; remark: listed apart in the source
[29] = molecular target: AP-2 complex subunit alpha-1 (Homo sapiens) (UniProt O95782)
[30] = molecular target: Nestin (Homo sapiens) (UniProt P48681)
[31] = species on record: Homo sapiens; remark: listed apart in the source
[32] = molecular target: Tubulin beta-3 chain (Homo sapiens) (UniProt Q13509)
[33] = molecular target: Coatomer subunit epsilon (Homo sapiens) (UniProt O14579)
[34] = molecular target: RNA-binding protein FUS (Homo sapiens) (UniProt P35637)
[35] = molecular target: Splicing factor 3B subunit 1 (Homo sapiens) (UniProt O75533)
[36] = molecular target: Synaptophysin-like protein 1 (Homo sapiens) (UniProt Q16563)
[37] = molecular target: Small ribosomal subunit protein eS24 (Homo sapiens) (UniProt P62847)
[38] = molecular target: Cancer-related nucleoside-triphosphatase (Homo sapiens) (UniProt Q9BSD7)
[39] = molecular target: Spectrin beta chain, non-erythrocytic 1 (Homo sapiens) (UniProt Q01082)
[40] = molecular target: ATP synthase F(0) complex subunit a (Homo sapiens) (UniProt P00846)
[41] = molecular target: L-lactate dehydrogenase B chain (Homo sapiens) (UniProt P07195)
[42] = molecular target: ATP synthase peripheral stalk subunit b, mitochondrial (Homo sapiens) (UniProt P24539)
[43] = molecular target: Ras GTPase-activating-like protein IQGAP1 (Homo sapiens) (UniProt P46940)
[44] = molecular target: ATP-dependent RNA helicase DHX15 (Homo sapiens) (UniProt O43143)
[45] = molecular target: Aminoacyl tRNA synthase complex-interacting multifunctional protein 2 (Homo sapiens) (UniProt Q13155)
[46] = molecular target: AP-1 complex subunit mu-1 (Homo sapiens) (UniProt Q9BXS5)
[47] = molecular target: V-type proton ATPase subunit H (Homo sapiens) (UniProt Q9UI12)
Further: assay method not described here.

POTE ankyrin domain family member E (Homo sapiens), sequence (Q6S8J3 whole entry, the tested form may be a part): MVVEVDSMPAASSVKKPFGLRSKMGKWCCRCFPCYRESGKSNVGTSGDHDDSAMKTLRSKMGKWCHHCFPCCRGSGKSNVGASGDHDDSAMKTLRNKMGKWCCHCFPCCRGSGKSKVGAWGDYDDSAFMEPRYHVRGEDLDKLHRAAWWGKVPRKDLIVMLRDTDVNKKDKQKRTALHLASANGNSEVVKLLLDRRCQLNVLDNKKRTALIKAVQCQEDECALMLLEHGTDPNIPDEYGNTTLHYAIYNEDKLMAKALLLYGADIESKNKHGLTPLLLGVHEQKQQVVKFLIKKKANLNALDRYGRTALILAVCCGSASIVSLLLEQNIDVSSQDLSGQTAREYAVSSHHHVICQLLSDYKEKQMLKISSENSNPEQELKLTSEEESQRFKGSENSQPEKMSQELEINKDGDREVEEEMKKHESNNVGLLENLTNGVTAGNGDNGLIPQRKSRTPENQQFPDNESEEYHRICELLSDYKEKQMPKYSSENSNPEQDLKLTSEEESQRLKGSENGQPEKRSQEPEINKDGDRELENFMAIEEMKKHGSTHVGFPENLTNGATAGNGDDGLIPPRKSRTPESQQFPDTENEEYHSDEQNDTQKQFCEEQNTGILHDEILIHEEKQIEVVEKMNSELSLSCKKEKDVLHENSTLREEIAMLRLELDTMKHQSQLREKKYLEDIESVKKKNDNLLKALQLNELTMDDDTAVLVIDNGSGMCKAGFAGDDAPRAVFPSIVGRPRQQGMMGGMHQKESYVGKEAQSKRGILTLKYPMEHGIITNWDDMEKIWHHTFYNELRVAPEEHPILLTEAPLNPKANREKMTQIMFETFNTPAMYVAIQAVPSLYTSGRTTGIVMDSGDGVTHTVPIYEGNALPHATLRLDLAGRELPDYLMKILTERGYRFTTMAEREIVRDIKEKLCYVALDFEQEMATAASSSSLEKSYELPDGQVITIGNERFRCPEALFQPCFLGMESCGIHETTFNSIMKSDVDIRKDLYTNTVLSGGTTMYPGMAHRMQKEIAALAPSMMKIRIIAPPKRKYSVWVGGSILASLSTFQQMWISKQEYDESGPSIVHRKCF
NADH dehydrogenase [ubiquinone] iron-sulfur protein 7, mitochondrial (Homo sapiens), sequence (O75251 whole entry): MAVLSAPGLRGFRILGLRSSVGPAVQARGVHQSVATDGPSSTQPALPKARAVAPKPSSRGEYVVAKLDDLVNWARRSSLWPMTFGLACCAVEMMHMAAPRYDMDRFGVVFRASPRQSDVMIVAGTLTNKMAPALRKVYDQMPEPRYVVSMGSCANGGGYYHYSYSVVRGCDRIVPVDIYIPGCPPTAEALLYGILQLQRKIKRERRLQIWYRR
Tubulin alpha-1C chain (Homo sapiens), sequence (Q9BQE3 whole entry, looked up): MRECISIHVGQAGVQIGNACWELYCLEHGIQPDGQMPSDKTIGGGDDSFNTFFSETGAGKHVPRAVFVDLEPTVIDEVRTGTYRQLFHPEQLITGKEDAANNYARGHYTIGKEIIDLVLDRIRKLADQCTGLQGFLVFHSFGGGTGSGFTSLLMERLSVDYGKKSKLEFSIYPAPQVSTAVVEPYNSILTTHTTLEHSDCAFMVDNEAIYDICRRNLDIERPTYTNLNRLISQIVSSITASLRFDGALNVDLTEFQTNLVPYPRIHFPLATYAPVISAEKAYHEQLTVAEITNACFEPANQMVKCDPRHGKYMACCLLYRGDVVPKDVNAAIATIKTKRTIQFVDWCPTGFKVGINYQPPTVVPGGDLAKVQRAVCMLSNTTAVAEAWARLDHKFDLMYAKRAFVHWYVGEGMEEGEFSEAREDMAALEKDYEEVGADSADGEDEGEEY
Cancer-related nucleoside-triphosphatase (Homo sapiens), sequence (Q9BSD7 whole entry): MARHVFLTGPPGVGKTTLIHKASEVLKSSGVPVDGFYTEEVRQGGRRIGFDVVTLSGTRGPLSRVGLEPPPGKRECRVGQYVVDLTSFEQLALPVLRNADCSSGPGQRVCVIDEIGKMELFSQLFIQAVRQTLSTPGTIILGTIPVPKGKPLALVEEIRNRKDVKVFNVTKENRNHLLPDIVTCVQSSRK
Splicing factor 3B subunit 1 (Homo sapiens), sequence (O75533 whole entry): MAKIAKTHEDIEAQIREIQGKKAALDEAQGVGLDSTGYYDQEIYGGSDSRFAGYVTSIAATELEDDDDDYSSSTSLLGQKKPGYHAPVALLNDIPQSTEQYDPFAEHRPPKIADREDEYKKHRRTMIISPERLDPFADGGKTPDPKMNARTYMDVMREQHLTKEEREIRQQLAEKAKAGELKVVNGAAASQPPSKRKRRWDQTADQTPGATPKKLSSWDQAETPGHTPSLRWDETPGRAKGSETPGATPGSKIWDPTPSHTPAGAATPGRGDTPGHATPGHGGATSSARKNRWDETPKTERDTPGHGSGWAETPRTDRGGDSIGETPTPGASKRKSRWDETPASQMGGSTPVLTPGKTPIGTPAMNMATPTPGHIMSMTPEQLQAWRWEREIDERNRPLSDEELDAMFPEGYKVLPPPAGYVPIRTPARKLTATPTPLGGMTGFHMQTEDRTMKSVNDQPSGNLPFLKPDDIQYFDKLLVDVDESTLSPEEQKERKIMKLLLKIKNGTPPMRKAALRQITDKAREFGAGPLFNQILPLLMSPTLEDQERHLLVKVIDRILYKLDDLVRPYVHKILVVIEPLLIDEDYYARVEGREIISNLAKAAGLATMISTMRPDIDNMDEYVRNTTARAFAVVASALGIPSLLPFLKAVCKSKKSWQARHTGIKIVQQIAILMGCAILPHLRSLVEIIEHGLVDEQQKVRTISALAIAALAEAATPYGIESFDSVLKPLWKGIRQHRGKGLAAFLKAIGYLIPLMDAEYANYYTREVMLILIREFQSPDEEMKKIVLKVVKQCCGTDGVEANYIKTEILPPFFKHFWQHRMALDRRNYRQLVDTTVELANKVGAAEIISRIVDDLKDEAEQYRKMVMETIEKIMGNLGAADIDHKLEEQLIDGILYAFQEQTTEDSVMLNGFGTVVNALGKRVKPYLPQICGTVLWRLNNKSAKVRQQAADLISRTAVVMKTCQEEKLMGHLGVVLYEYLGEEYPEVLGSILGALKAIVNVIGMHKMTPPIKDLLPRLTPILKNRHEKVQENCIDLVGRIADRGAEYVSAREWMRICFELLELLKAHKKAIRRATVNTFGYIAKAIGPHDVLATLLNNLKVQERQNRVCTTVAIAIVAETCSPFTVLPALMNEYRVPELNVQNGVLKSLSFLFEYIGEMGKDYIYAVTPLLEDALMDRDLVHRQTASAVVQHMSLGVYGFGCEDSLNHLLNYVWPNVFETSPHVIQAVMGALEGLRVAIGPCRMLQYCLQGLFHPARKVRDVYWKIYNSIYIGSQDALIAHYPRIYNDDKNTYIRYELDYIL
Dual specificity protein kinase CLK1 (Homo sapiens), sequence (P49759 whole entry, looked up, the tested form may be a part): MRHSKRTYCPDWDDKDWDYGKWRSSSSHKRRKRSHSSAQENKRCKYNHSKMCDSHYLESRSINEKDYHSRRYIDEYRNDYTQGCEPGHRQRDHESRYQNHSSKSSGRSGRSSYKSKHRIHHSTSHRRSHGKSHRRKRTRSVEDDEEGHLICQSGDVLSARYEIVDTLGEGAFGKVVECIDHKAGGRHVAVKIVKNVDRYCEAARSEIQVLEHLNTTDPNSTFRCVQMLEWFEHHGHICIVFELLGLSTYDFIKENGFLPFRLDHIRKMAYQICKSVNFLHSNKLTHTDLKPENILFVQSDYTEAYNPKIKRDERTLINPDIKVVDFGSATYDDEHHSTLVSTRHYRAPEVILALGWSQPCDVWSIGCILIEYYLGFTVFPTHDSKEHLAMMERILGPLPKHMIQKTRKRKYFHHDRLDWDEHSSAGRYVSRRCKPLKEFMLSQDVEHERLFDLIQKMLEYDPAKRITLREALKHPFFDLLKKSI
Sister chromatid cohesion protein PDS5 homolog A (Homo sapiens), sequence (Q29RF7 whole entry): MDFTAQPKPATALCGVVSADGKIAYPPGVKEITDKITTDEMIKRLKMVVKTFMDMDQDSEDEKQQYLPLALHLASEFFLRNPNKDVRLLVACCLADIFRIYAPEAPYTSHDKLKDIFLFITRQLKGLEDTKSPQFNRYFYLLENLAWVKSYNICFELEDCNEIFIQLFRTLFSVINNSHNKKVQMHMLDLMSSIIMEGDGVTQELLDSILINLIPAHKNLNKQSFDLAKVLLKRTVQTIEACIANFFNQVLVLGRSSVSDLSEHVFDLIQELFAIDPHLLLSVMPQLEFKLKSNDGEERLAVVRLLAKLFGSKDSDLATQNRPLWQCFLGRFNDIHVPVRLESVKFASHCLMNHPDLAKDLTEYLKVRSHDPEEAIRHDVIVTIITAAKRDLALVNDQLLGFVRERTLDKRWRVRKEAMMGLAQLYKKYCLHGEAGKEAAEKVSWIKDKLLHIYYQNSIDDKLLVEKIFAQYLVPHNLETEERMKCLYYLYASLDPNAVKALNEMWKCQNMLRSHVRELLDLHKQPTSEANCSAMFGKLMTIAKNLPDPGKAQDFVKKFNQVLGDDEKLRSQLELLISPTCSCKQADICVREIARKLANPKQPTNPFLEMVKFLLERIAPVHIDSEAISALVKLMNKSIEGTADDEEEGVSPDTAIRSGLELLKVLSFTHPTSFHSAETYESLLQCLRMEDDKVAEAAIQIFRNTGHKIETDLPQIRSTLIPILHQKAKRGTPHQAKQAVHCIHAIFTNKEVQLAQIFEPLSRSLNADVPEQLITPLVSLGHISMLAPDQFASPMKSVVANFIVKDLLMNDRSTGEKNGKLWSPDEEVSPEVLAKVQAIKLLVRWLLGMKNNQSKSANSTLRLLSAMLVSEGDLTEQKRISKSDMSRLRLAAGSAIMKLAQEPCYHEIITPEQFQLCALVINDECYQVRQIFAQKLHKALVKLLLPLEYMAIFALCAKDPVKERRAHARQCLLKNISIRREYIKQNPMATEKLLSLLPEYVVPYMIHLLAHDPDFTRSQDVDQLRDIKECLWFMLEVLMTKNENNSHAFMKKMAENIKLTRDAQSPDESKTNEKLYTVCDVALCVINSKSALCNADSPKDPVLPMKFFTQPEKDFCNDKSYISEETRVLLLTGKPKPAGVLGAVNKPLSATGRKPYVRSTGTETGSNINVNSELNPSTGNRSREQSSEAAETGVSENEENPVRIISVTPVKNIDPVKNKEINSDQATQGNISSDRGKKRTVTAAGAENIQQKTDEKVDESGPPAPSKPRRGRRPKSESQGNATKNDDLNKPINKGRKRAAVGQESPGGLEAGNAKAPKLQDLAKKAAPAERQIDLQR

## Cc1ccc(C(=O)Nc2cccc(C(F)(F)F)c2)cc1Nc1nc(-c2cccnc2)nc2c1cnn2C
[1]
  ED50: 7040 nM
[2]
  ED50: 1.86 nM
[3]
  ED50: 14.2 nM
[4]
  ED50: 2.92 nM
[5]
  ED50: 4030 nM
[6]
  ED50: 32500 nM
[7]
  ED50: 8.9 nM
[8]
  ED50: 11700 nM
[9]
  ED50: 5.47 nM
[10]
  ED50: 1340 nM
[11]
  ED50: 5490 nM
[12]
  ED50: 4010 nM
[13]
  ED50: 4100 nM
[14]
  ED50: 4.17 nM
[15]
  ED50: 101000 nM
[16]
  ED50: 4890 nM
[17]
  ED50: 5.64 nM
[18]
  ED50: 2880 nM
[19]
  ED50: 542 nM
[20]
  ED50: 3.09 nM
[21]
  ED50: 16.3 nM
[22]
  ED50: 978 nM
[23]
  ED50: 1840 nM
[24]
  ED50: 4510 nM
[25]
  ED50: 0.531 nM
[26]
  ED50: 7360 nM
[27]
  ED50: 6.82 nM
[28]
  ED50: 6330 nM
[29]
  ED50: 217 nM
[30]
  ED50: 244 nM
[31]
  ED50: 21.7 nM
[32]
  ED50: 3060 nM
[33]
  ED50: 787 nM
[34]
  ED50: 17.5 nM
[35]
  ED50: 2850 nM
[36]
  ED50: 6430 nM
[37]
  ED50: 357 nM
[38]
  ED50: 844000 nM
[39]
  ED50: 1610 nM
[40]
  ED50: 677 nM
[41]
  ED50: 8.31 nM
[42]
  ED50: 11500 nM
[43]
  ED50: 4700 nM
[44]
  ED50: 372 nM
[45]
  ED50: 5.34 nM
[46]
  ED50: 55.2 nM
[47]
  ED50: 1.75 nM

## Cc1ccc(C(=O)Nc2cccc(C(F)(F)F)c2)cc1Nc1nc(-c2cccnc2)nc2nn(C)cc12
[1]
  ED50: 39200 nM
[2]
  ED50: 87.8 nM
[3]
  ED50: 154 nM
[4]
  ED50: 1010 nM
[5]
  ED50: 17.7 nM
[6]
  ED50: 0.313 nM
[7]
  ED50: 7990 nM
[8]
  ED50: 2450 nM
[9]
  ED50: 174 nM
[10]
  ED50: 60500 nM
[11]
  ED50: 961 nM
[12]
  ED50: 120 nM
[13]
  ED50: 2070 nM
[14]
  ED50: 819 nM
[15]
  ED50: 75000 nM
[16]
  ED50: 5.3 nM
[17]
  ED50: 9370 nM
[18]
  ED50: 2120 nM
[19]
  ED50: 387 nM
[20]
  ED50: 1810 nM
[21]
  ED50: 29900 nM
[22]
  ED50: 2820 nM
[23]
  ED50: 4590 nM
[24]
  ED50: 6820 nM
[25]
  ED50: 137 nM
[26]
  ED50: 9470 nM
[27]
  ED50: 553 nM
[28]
  ED50: 6810 nM
[29]
  ED50: 4780 nM
[30]
  ED50: 1300 nM
[31]
  ED50: 481000 nM
[32]
  ED50: 106 nM
[33]
  ED50: 126 nM
[34]
  ED50: 36.6 nM
[35]
  ED50: 3000 nM
[36]
  ED50: 53.5 nM
[37]
  ED50: 314 nM
[38]
  ED50: 60.8 nM
[39]
  ED50: 90.8 nM
[40]
  ED50: 622 nM
[41]
  ED50: 9990 nM
[42]
  ED50: 11.3 nM
[43]
  ED50: 35.4 nM
[44]
  ED50: 23000 nM
[45]
  ED50: 49.5 nM
[46]
  ED50: 91.4 nM
[47]
  ED50: 2380 nM
